Laboratory results reported in patent publication US20080057010A1, “METHOD FOR SKIN CARE” (NULIV SCIENCE LTD., priority 2006, published 2008).

Assays:
Type in all cases: cell-based, human
HaCaT cells = test: Proline uptake assay in HaCaT cells; settings: 0.1 μM; for Uptake rate (proline): 48 h treatment; for Percentage (%) of control proline uptake: control = 100.00
Description: The proline uptake assay was carried out as described (Biochim Biophys Acta. 1104:283-292, 1992). Briefly, HaCaT cells were seeded into a 24-well plate at a density of 3×10^4 cells/well and cultured for 24 h. The cells were then treated in the absence (solvent control) or presence of various concentrations of astragalosides or crude extracts from Astragalus membranaceus for another 48 h. The treated cells were then washed once with PBS and incubated in amino acid free medium (AAFM) for another 30 min. The treated cells were them replaced with fresh AAFM containing 50 μg/ml of ascorbate and total of 0.5 mM of L-proline containing 1 μCi [^3H] Proline (American Radiolabelled Chemicals Inc, ARC, St. Louis, Mo., USA). At designated time interval, the cells were washed with AAFM containing cold proline and then lysed in 200 μL of 2% SDS. Cell lysates were centrifuged at 15000 g for 15 min. Intracellular proline uptaken by the cells was determined by transferring 10 μL of the cell lysate to filter-bottomed UniFilter plates (Perkim-Elmer) and counted. Protein concentration of the samples were measured using the BCA protein assay kit as described above. Proline accumulated in the cells was calculated and normalized to protein concentration and uptake rate was expressed as nmole of L-proline per minute per milligram of cell protein ([…]).

HA synthase 2 (HAS2) = test: Quantitative analysis of HA synthase 2 (HAS2) transcripts in HaCaT cells (qRT-PCR); settings: 0.1 μM, qRT-PCR normalized to GAPDH, relative to 0 = 1.00
Description: Relative levels of HAS2 expression in HaCaT cells were determined by real-time quantitative reverse transcriptase polymerase chain reaction (qRT-PCR). Total RNAs were isolated from the cultured human cells using TRIzol reagent (Invitrogen, Irvine, Calif., USA). 1 μg of RNA was reverse transcribed, at 37° C. for 60 min in a 20 μl transcription mixture containing dNTP (0.5 mM), oligo-dT (0.1 μg), RNasin (10 units), 1×PCR buffer (20 mM Tris-HCl, pH 8.3; 2.5 mM MgCl2; 50 mM KCl), and 100 units of Moloney murine leukemia virus reverse transcriptase (Invitrogen). The cDNA product was phenol extracted, ethanol precipitated, and resuspended in 20 μl TE (20 mM Tris-Cl, pH 8.0 and 1 mM EDTA). qRT-PCR was performed using the Applied Biosystem 7300 system and pre-developed Taqman Gene Expression Assays (Applied Biosystems, Foster City, Calif., USA). The reaction mixtures (20-μl total volume) contained 2 μl of serially diluted cDNA, 10 μl of Taqman Universal PCR Master Mix (Applied Biosystems), and 1 μl of either human HAS-2 gene (assay ID Hs 00193435_ml, Applied Biosystems), or GAPDH primer mix (assay ID Hs99999905_ml, Applied Biosystems). The reactions were amplified as follows: 50° C. for 2 min and 95° C. for 10 min, followed by 40 cycles of 95° C. for 1 min and 65° C. for 1 min. Two independent triplicate experiments were performed for the selected genes. Relative quantitation was performed using the 7300 software (Applied Biosystems, Foster City, Calif., USA). Expression of HAS-2 was normalized to GAPDH expression in each sample.

MMP-2 = test: Zymography of MMP-2 in HaCaT cells; settings: relative to 0 = 1.00
Description: The proteolytic activities of MMPs from HaCaT and HDF cells were measured essentially as described elsewhere (Circ Res, 1999; 85:906-911). The cells were seeded for 24 h and then treated with various concentrations of astragalosides for another 48 h. The conditioned culture medium was then centrifuged, 2-fold concentrated, and saved for assay of collagens and MMPs expressed into the culture medium. The cells were then lysed in lysis buffer (1% Triton, 50 mM Tris-Cl, pH 7.4, 180 mM NaCl, 1 mM EDTA). Protein concentration of the samples was measured using the bicinchoninic acid (BCA) protein assay kit as described. Samples of concentrated conditioned medium and cell lysates were mixed with non-reducing electrophoresis loading buffer and subjected to electrophoresis under non-reducing conditions, which was carried out on a 10% SDS-PAGE co-polymerized with 2 mg/mL gelatin or casein (Sigma, St. Louis, Mo. USA). For zymographic analysis of pro-MMP-2 and activated MMP-2, the total 20 μg of culture medium were used for electrophoresis. Following electrophoresis, renaturation of the proteins was achieved by incubating the gels in 25 g/L Triton X-100 at room temperature for 2×10 min. Subsequently the gels were incubated in 50 mM Tris-HCl, pH 7.5 containing 0.2 M NaCl, 0.02% Brij35 and 10 mM CaCl2 at 37° C. for 18 h. After staining the gels with Coomassie Brilliant Blue R-250 and destaining, zones of proteolytic activities became visible as transparent bands in the stained gel. In order to obtain higher sensitivity, the gels were further destained in a solution of 1% Triton x-100 (1 to 2 h). This procedure increased the signal-to-noise ratio, allowing the visualization of faint gelatinase bands at 92, 125 and greater than 200 kDa. Zymograms were read using a Molecular Dynamics (Sunnyvale, Calif., USA) computing laser densitometer with Image Quant software.
Results shown in Tables 6A and 6B represent the quantitated data from zymography analysis of MMP-2 protein in HaCaT cells and qRT-PCR for MMP-1 in HDF cells. The concentrations used were 0, 0.01. 0.1, 1 μM (if not indicated otherwise) for pure compounds; and were 0, 1, 10, 40 μg/mL for crude extract (if not indicated otherwise). The cells were treated with the indicated compounds for 24 h before harvested for analysis of Pro-MMP-2 or activated MMP-2 in whole cell extract. Fifty micrograms of the cell extract samples were used for electrophoresis.

| Molecule | Uptake rate (proline) (HaCaT cells) | Percentage (%) of control proline uptake (HaCaT cells) | HAS-2 in cell (HA synthase 2 (HAS2)) | ProMMP-2/MMP2 in medium (MMP-2; 0.01 μM) | ProMMP-2/MMP2 in medium (MMP-2; 0.1 μM) | ProMMP-2/MMP2 in medium (MMP-2; 1 μM) |
| --- | --- | --- | --- | --- | --- | --- |
| CC(C)(O)[C@@H]1CC[C@](C)([C@H]2[C@@H](O)C[C@@]3(C)[C@@H]4C[C@H](O[C@@H]5O[C@H](CO)[C@@H](O)[C@H](O)[C@H]5O)[C@H]5C(C)(C)[C@@H](O[C@@H]6OC[C@@H](O)[C@H](O)[C@H]6O)CC[C@@]56C[C@@]46CC[C@]23C)O1 [AS4, astragaloside IV] | 0.7628 ± 0.1015 pmol/mg/min | 110.50% | 1.41 | – | – | – |
| CC(C)(O)[C@@H]1CC[C@](C)([C@H]2[C@@H](O)C[C@@]3(C)[C@@H]4C[C@H](O)[C@H]5C(C)(C)[C@@H](O[C@@H]6OC[C@@H](O)[C@H](O)[C@H]6O[C@@H]6O[C@H](CO)[C@@H](O)[C@H](O)[C@H]6O)CC[C@@]56C[C@@]46CC[C@]23C)O1 [AS3, astragaloside III] | 0.7213 ± 0.0090 pmol/mg/min | 104.48% | – | 0.76 | 0.57 | 0.81 |
| astragaloside I [AS1] | 0.8627 ± 0.0741 pmol/mg/min | 124.97% | – | 0.57 | 0.57 | 0.86 |
| CC(C)(O)[C@@H]1CC[C@](C)([C@H]2[C@@H](O)C[C@@]3(C)[C@@H]4C[C@H](O[C@@H]5O[C@H](CO)[C@@H](O)[C@H](O)[C@H]5O)[C@H]5C(C)(C)[C@@H](O[C@@H]6OC[C@@H](O)[C@H](O)[C@H]6O[C@@H]6O[C@H](CO)[C@@H](O)[C@H](O)[C@H]6O)CC[C@@]56C[C@@]46CC[C@]23C)O1 [AS6, astragaloside VI] | – | – | – | 0.89 | 0.67 | 0.74 |
| CC(=O)O[C@H]1[C@H](O[C@H]2CC[C@]34C[C@]35CC[C@]3(C)[C@@H]([C@@]6(C)CC[C@@H](C(C)(C)O)O6)[C@@H](O)C[C@@]3(C)[C@@H]5C[C@H](O[C@@H]3O[C@H](CO)[C@@H](O)[C@H](O)[C@H]3O)[C@H]4C2(C)C)OC[C@@H](OC(C)=O)[C@@H]1O [isoAS1, isoastragaloside I] | – | – | 1.12 | – | – | – |
| CC(=O)O[C@H]1[C@H](O[C@H]2CC[C@]34C[C@]35CC[C@]3(C)[C@@H]([C@@]6(C)CC[C@@H](C(C)(C)O)O6)[C@@H](O)C[C@@]3(C)[C@@H]5C[C@H](O[C@@H]3O[C@H](CO)[C@@H](O)[C@H](O)[C@H]3O)[C@H]4C2(C)C)OC[C@@H](O)[C@@H]1O [AS2, astragaloside II] | 0.9770 ± 0.1119 pmol/mg/min | 141.52% | 2.73 | 0.89 | 0.89 | 0.67 |
| CC(=O)O[C@@H]1[C@@H](O)[C@H](O[C@H]2CC[C@]34C[C@]35CC[C@]3(C)[C@@H]([C@@]6(C)CC[C@@H](C(C)(C)O)O6)[C@@H](O)C[C@@]3(C)[C@@H]5C[C@H](O[C@@H]3O[C@H](CO)[C@@H](O)[C@H](O)[C@H]3O)[C@H]4C2(C)C)OC[C@H]1O [isoAS2, isoastragaloside II] | – | – | 1.28 | – | – | – |
